Drawing on ChEMBL document CHEMBL1201862, “PubChem BioAssay data set” (2004), this text covers EC50, IC50 and AC50 for six compounds.

Active and inactive are the calls of the source. Unless noted, the calls are words filed in the database; no cut-off is given here.

Usually EC50 stands for the concentration giving half of the maximal effect. The term AC50 denotes the midpoint of the concentration-response curve, whichever way the signal moves.

The target in assay [1] is Broad substrate specificity ATP-binding cassette transporter ABCG2 (Homo sapiens, UniProt Q9UNQ0). In words: ABCG2 efflux pump inhibitors, dose response, Ig-MXP3 cells, flow cytometry (AID 1690). It counts as functional. (Flow cytometry measures light scatter and fluorescence of single cells or particles in a stream.)
Assay [2] addresses ATP-dependent translocase ABCB1 (Homo sapiens, UniProt P08183). Put plainly: ABCB1 efflux pump inhibitor potency, dose response, Jurkat-DNR cells, JC-1, flow cytometry (AID 1689). It counts as functional.
A further assay addresses T1, Protein RecA (Mycobacterium tuberculosis, UniProt P9WHJ3).
T1 sequence (P9WHJ3 whole entry): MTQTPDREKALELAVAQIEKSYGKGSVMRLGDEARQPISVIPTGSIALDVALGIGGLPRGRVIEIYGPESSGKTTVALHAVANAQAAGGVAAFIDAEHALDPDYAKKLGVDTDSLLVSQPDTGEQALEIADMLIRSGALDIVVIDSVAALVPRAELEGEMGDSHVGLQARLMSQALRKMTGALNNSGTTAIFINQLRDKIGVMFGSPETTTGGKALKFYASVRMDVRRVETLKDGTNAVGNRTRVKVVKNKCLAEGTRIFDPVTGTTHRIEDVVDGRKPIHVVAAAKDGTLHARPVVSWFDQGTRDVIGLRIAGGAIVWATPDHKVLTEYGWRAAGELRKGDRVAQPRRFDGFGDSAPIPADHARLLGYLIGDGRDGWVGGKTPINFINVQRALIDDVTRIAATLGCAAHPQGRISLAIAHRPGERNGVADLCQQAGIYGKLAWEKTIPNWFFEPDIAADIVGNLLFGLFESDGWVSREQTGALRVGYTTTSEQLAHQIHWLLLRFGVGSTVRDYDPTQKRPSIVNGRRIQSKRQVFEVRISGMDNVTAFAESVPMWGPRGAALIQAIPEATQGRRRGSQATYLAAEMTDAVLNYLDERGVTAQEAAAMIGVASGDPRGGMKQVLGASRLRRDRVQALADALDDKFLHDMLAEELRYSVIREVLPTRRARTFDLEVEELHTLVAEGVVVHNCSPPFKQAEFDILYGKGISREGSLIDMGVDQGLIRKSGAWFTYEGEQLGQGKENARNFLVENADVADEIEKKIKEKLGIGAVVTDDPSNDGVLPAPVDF
In words: Fluorescence Cell-Free Homogeneous Dose Retest to Identify Inhibitors of RecA-Intein Splicing Activity. [Related pubchem assays (depositor defined):AID2097, AID2223, AID489010, AID492950]. It counts as functional.

The target in assay [3] is Apoptotic protease-activating factor 1 (Homo sapiens, UniProt O14727). It counts as functional.
The target of another assay is Nonstructural protein 1 (Influenza A virus, UniProt Q194T2). It counts as functional, Influenza A virus (A/California/07/2009(H1N1)).
Assay [4] concerns the target T2, Replicative DNA helicase DnaB (Mycobacterium tuberculosis, UniProt P9WMR3).
T2 sequence (P9WMR3 whole entry): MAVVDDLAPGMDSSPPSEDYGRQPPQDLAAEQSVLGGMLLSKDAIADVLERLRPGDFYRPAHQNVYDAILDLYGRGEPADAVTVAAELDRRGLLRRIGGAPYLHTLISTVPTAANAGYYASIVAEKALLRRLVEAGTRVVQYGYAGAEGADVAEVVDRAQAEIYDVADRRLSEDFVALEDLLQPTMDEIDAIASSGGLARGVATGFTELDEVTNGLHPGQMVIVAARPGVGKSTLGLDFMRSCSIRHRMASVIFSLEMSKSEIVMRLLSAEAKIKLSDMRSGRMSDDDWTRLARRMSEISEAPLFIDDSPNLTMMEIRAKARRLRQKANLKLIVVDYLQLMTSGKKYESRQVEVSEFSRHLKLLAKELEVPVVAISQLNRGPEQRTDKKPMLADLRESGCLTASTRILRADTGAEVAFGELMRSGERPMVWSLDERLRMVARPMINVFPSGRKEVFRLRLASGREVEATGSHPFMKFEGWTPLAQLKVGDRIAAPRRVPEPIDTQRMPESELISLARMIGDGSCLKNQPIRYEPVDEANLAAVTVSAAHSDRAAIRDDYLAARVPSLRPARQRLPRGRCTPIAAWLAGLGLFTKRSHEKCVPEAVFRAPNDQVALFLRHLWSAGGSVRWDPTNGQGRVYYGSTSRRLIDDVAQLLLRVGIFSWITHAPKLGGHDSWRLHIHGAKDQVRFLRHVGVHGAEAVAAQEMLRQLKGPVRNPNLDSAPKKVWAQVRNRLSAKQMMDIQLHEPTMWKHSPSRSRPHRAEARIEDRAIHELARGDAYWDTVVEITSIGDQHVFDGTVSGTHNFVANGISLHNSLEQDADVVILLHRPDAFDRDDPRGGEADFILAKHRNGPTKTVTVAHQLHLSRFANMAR
In words: DnaB intein splicing inhibitors, dose response, biochemical, cell-free fluorescence (AID 449749). Format: functional.

The target in assay [5] is Dual specificity protein phosphatase 3 (Homo sapiens, UniProt P51452). Put plainly: VHR phosphatase inhibition, dose response, selectivity assay for STEP inhibitor project, biochemical (AID 602374). Format: functional. The conditions noted are these: read-out: IC50_Mean.
Assay [6] addresses Tyrosine-protein phosphatase non-receptor type 11 (Homo sapiens, UniProt Q06124). In words: SHP2 phosphatase inhibition, dose response, selectivity assay for STEP inhibitor project, biochemical (AID 602367). It counts as functional. The conditions noted are these: read-out: IC50_Mean.
For assay [7], the target named is Tyrosine-protein phosphatase non-receptor type 5 (Homo sapiens, UniProt P54829). Put plainly: STEP phosphatase inhibitors, confirmation, biochemical, fluorescence intensity, uHTS hits (AID 602372). It counts as functional. The note with it: read-out: IC50_Mean.
Assay [8] can be described thus: intracellular Trypanosoma cruzi inhibitors in host cells – cell-based, plate reader, cherry-pick samples, set 3, dose response (AID 651818).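 Further: compounds incubated with infected cells for about four days.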 Format: functional.
The nature of assay [9]: Inhibition of T. cruzi Tulahuen strain amastigotes in L-6 muscle cells Measured in Cell-Based and Microorganism Combination System Using Plate Reader - 2138-03_Inhibitor_Dose_CherryPick_Activity. Format: functional. The conditions noted are these: Rattus norvegicus, L6.
Assay [10] in a line: L. donovani amastigote growth inhibition, dose response, axenic amastigotes, plate reader, cherry pick (AID 651891). The note with it: Leishmania donovani. It counts as functional, cell-based.
A short description of assay [11]: T. b. rhodesiense proliferation inhibition, dose response, STIB900 strain, plate reader, cherry pick (AID 651893). It counts as functional, cell-based. The conditions noted are these: Trypanosoma brucei.
Assay [12] in a line: Inhibition of Plasmodium falciparum NF54 Measured in Cell-Based System Using Plate Reader - 2138-11_Inhibitor_Dose_CherryPick_Activity. Format: functional.
The nature of assay [13]: T. cruzi intracellular amastigote growth inhibition, dose response, imaging, CA-I/72 strain, bovine embryo skeletal muscle, dry powder (AID 651885). It counts as functional, cell-based.
The nature of assay [14]: cytotoxicity in L-6 rat myocytes, dose response, cytotoxicity control, cell-based, plate reader, cherry-pick (AID 651896). It counts as functional.
In assay [15] the target is Platelet-activating factor acetylhydrolase (Mus musculus, UniProt Q60963). Put plainly: Late stage assay provider results from the probe development effort to identify inhibitors of pPAFAH: fluorescence-based dose-response biochemical gel-based competitive Activity-Based Protein Profiling (ABPP) assay for SAR compounds. Format: functional.
The target of assay [16] is T3, Low molecular weight phosphotyrosine protein phosphatase (Homo sapiens, UniProt P24666).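 Further: Dose-response confirmation assay measuring inhibition of LMPTP enzyme activity by fluorescence intensity read-out.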
T3 sequence (P24666 whole entry): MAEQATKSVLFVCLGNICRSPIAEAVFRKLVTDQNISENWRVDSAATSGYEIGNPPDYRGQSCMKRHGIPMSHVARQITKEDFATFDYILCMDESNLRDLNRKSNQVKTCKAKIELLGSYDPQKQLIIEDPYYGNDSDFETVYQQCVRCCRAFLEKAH
It counts as functional. The conditions noted are these: read-out: IC50_Mean.

Another assay relates to HEK293. Put plainly: inhibitors of LMP1-driven NF-kB reporter, dose response, cell-based, HEK293, luciferase, cherry-pick (AID 588343). It counts as functional, Homo sapiens. The note with it: Homo sapiens, HEK293.
Assay [17] has as its target T4, Interleukin-8 (Homo sapiens, UniProt P10145).
T4 sequence (P10145 whole entry): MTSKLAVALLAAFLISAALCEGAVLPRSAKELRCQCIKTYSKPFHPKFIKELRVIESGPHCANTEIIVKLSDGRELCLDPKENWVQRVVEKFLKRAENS
Put plainly: Dose Response confirmation of uHTS small molecule hits for cystic fibrosis induced NFkb Inhibitors in a TNFa-induced IL8 counterscreen. The conditions noted are these: read-out: IC50_Mean. It counts as functional. A general note: A counterscreen serves to expose hits that act by an unwanted route or on another target.

In assay [18] the target is T4, Interleukin-8. In words: Dose Response confirmation of uHTS small molecule hits for cystic fibrosis induced NFkb Inhibitors in a PAF-induced IL8 counterscreen. It counts as functional. The note with it: read-out: IC50_Mean.

Sequence of ATP-dependent translocase ABCB1 (P08183 whole entry): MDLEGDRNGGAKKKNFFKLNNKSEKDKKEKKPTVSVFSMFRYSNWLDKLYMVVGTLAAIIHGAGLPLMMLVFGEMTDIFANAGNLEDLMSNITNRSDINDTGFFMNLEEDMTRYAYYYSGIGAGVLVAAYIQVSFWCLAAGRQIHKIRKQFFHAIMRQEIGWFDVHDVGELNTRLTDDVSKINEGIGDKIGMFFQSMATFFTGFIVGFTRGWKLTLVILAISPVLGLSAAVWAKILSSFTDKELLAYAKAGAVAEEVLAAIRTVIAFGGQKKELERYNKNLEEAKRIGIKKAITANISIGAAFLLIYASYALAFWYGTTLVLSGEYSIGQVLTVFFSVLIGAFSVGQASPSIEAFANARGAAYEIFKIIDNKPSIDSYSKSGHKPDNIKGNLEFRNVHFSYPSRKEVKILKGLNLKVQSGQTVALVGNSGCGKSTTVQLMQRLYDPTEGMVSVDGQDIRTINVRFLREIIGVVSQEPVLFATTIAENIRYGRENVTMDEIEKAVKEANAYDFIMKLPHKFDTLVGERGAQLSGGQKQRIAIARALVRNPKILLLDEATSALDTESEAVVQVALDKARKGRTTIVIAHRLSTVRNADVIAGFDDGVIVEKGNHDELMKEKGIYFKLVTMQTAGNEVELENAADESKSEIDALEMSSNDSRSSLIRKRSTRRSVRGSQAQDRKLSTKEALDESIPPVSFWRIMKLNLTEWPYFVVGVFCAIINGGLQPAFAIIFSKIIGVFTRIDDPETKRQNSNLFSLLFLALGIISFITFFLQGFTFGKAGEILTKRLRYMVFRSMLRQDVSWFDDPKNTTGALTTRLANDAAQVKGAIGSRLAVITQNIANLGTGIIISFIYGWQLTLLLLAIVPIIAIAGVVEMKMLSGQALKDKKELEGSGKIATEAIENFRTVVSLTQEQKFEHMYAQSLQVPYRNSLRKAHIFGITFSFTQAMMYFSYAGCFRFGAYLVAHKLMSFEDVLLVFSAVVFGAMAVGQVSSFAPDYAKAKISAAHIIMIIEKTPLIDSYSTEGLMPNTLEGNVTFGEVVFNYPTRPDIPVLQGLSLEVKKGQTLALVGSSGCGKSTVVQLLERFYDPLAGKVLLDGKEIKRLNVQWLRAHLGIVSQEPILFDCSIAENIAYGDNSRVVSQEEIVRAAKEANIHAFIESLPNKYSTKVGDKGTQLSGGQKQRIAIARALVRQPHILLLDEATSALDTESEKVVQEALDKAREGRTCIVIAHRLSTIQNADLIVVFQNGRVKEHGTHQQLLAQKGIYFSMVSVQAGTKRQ
Sequence of Apoptotic protease-activating factor 1 (O14727 whole entry): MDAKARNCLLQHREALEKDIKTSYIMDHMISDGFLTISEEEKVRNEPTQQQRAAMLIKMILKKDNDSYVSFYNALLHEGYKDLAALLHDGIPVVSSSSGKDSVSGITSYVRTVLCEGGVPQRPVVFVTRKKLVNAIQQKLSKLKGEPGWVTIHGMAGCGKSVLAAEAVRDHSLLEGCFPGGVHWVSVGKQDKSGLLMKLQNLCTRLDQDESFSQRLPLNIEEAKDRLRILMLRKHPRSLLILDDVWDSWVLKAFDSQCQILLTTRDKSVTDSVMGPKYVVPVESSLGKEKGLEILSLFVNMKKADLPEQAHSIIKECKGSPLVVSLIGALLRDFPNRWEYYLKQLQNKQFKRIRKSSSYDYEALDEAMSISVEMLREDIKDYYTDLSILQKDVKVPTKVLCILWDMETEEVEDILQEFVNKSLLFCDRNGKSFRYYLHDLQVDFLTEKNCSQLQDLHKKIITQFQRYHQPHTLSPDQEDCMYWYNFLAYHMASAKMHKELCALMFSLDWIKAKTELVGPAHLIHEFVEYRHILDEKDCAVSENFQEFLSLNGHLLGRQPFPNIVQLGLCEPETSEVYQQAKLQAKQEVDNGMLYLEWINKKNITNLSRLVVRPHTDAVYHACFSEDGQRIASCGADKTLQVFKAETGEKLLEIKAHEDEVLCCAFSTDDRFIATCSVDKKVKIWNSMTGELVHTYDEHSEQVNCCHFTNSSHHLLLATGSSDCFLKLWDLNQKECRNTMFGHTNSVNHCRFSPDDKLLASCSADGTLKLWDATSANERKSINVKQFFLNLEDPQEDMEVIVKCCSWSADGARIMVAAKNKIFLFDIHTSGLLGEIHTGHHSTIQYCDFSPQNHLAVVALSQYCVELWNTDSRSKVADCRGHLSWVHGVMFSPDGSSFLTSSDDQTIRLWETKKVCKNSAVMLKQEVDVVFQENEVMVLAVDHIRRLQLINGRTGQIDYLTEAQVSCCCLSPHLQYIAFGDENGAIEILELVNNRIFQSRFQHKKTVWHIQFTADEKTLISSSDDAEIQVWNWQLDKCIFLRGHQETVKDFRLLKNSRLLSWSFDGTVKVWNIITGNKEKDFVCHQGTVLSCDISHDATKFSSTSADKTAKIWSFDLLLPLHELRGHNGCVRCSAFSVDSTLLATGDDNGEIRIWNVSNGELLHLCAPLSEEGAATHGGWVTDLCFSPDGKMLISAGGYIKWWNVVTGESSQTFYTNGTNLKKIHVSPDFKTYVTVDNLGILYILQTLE
Sequence of Tyrosine-protein phosphatase non-receptor type 5 (P54829 whole entry): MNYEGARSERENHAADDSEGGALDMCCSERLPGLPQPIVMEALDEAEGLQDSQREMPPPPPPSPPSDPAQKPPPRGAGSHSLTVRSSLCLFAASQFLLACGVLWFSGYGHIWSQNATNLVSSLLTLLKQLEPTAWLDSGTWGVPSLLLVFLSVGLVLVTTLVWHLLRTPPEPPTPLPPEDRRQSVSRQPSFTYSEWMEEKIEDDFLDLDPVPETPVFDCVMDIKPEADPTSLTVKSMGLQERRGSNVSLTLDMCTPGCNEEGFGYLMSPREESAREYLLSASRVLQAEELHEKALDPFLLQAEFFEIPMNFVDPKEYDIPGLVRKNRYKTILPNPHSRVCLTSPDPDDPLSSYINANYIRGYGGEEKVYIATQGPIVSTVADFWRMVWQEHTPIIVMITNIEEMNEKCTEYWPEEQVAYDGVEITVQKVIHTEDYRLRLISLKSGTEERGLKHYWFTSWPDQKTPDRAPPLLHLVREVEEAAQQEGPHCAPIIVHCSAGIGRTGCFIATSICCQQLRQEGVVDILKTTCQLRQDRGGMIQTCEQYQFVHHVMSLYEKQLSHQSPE
Sequence of Dual specificity protein phosphatase 3 (P51452 whole entry): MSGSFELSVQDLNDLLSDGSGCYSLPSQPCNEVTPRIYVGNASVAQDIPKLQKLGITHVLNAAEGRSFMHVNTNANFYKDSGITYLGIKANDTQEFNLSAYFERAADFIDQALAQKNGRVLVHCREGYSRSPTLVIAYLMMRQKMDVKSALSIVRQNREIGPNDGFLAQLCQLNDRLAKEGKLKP
Sequence of Broad substrate specificity ATP-binding cassette transporter ABCG2 (Q9UNQ0 whole entry): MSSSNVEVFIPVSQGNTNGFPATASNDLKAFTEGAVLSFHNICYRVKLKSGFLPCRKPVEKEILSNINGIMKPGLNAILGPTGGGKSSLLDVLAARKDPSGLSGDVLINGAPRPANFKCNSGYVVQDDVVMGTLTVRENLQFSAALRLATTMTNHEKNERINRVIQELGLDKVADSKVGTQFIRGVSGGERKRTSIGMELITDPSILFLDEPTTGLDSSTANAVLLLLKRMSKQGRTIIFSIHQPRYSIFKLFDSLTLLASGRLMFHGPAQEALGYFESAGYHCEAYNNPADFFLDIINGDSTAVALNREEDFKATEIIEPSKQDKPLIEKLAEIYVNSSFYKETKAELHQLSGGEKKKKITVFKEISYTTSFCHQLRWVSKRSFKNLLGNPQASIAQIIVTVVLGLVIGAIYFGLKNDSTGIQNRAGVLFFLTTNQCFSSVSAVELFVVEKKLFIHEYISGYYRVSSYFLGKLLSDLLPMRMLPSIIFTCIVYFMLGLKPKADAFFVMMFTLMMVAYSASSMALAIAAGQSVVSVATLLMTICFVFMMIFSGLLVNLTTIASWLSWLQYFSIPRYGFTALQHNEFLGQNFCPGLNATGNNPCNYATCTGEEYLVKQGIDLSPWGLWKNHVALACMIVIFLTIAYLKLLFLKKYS
Sequence of Nonstructural protein 1 (Q194T2 whole entry): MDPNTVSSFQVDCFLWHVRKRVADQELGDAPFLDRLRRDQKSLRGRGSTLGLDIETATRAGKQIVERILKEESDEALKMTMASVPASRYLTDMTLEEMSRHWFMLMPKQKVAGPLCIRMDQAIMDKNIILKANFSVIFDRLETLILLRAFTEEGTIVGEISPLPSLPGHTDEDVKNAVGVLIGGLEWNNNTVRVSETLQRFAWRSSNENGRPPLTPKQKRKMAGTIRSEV
Sequence of Platelet-activating factor acetylhydrolase (Q60963 whole entry): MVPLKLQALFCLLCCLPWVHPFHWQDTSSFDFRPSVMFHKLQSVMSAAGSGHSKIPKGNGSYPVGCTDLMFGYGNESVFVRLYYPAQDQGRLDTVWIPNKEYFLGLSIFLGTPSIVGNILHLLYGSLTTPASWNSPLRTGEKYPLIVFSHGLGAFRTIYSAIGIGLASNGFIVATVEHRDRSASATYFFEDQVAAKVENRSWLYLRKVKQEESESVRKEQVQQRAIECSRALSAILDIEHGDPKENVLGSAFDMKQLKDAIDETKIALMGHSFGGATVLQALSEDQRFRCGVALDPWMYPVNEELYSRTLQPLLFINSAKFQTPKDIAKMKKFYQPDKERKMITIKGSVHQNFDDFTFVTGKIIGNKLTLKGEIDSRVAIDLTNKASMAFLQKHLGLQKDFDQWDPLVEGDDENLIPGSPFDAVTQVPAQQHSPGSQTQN

As to `CCOC(=O)c1cccc(NC(=O)c2cnc3ccccc3n2)c1`, the EC50 is 11.8 µM (active) in assay [1] and 30.7 µM (inactive) in assay [2].
As to `Cc1nn(-c2ccccc2)c(O)c1/C=N/NC(=O)c1ccc(O)cc1O`, the 50% effective concentration (EC50) at Protein RecA is 3.13 µM (active). For the same compound, the IC50 in assay [3] was 5.15 µM (active); at Nonstructural protein 1 it was 3.09 µM (active). The concentration at half-maximal activity (AC50) in assay [4] was 2.5 µM (active).
For `NS(=O)(=O)c1ccccc1`, the figures for the IC50 in assay [5], in [6] and in [7] were 1.5 µM (active), 8.42 µM (active) and 28.6 µM (inactive), respectively.
Turning to `C[C@H]1CN([C@@H](C)CO)C(=O)c2cccc(NC(=O)c3ccncc3)c2O[C@@H]1CN(C)Cc1ccc(-c2ccccc2)cc1`, the AC50 in assay [8] is 0.075 µM (active). The IC50 in assay [9] is 1.14 µM (active); in [10], 6.47 µM (inactive); in [11], 6.41 µM (inactive); in assay [12], 1.14 µM (active); in [13], 10 µM (inconclusive); in assay [14], 17.5 µM (active).
Take `Cc1cc(N2CCN(C(=O)Oc3ccc([N+](=O)[O-])cc3)CC2)c2ccccc2n1`: the results for the IC50 in [15] and in assay [16] were 0.179 µM (active) and 25.4 µM (inactive), respectively.
`COc1ccccc1[C@]1(C)ON(c2ccccc2C(F)(F)F)C1=O`: the concentration at half-maximal activity (AC50) in the assay on HEK293 is 7.34 µM (active). Moreover, the IC50 on Interleukin-8 [17] is 24.3 µM (active); at Interleukin-8 [18], 8 µM (active).
